1 molecule from patent US11771086B2, “Pest control composition including novel iminopyridine derivative” (priority 2012, dated 2023) can be followed below.

Where “and” joins values, the source holds several entries; their conditions need not be identical. Equal values may be shown once.

What is called mortality is the share of the test organisms that died.

Data set [1] concerns Frankliniella occidentalis. In words: Reference Test Example 9 Pest control test of Frankliniella occidentalis (foliar treatment, single agent). The conditions noted are these: 72 h. It is filed as in vivo.
Method: After an air drying process, first instar larvae were released to the leaf disk. Thereafter, the larvae were left to stand in a thermostatic chamber (16 hours of light period-8 hours of dark period) at 25° C. […] Test in duplicate. Mortality of larvae (%)={number of dead larvae/(number of survived larvae+number of dead larvae)}×100
The test system of data set [2] is Laodelphax striatella. In words: Reference Test Example 4 Pest control test of Laodelphax striatella (foliar treatment, single agent). In kind it is in vivo. The settings on record: Laodelphax striatellus, 72 h. From the text:
After an air drying process, second instar larvae were released thereto. […] Test in duplicate.

In data set [3] the test system is Oulema oryzae. In words: Reference Test Example 12 Pest control test of Oulema oryzae (topical application). It is filed as in vivo. The conditions noted are these: throughput of 0.5 μg/head; adults; forty eight hours after the treatment. The procedure: 1 μL(/head) of a drug solution of the compound of Formula (I) prepared at a predetermined concentration with acetone was topically applied and treated to the back of adults collected outdoors by a micro syringe. After the drug treatment, the adults were transferred to rice seedlings and left to stand in a thermostatic chamber at 25° C. so as to obtain 5 heads per stem. […] Test in duplicate. Mortality of adults (%)={number of dead adults/(number of survived adults+number of dead adults)}×100

For data set [4], the system named is Laodelphax striatellus. In words: Test Example 14 Test with Laodelphax striatellus by soil irrigation treatment (mixture with paddy herbicide). It is filed as in vivo. The conditions noted are these: five days after release. The procedure: After standing for three days, second instar larvae were released thereto. […] The test was performed in duplicate.
The subject of data set [5] is Nilaparvata lugens susceptible species (highly susceptible to imidacloprid). As to the kind of experiment: Reference Test Example 19 Pest control test of Nilaparvata lugens, imidacloprid susceptible species (soil drench). In kind it is in vivo. The settings on record: for Insecticidal effects against Nilaparvata lugens (death rate %), Susceptible population: soil drench, six days. The procedure: (§1) Three days after the treatment, ten second instar larvae of Nilaparvata lugens, which had been collected outdoors and proliferated indoors, were each released to the rice seedling. […] Test in duplicate.
(§2) Furthermore, for comparison, the test against a species of Nilaparvata lugens which is highly susceptible to imidacloprid was performed by the same method as described above, and the results thereof are shown in Table 45. […] Meanwhile, the death rates of imidacloprid at 0.05 mg/seedling were (susceptible species) 100%, (resistant population I) 38% and (resistant population II) 69%, and the insecticidal effect thereof was also low even at a high dose. From the above results, it became obvious that Compound P212 and Compound 1-20 have high insecticidal effects even against Nilaparvata lugens resistance against imidacloprid.
(§3) Further, for the origin of test pests, bugs collected outdoors from the Kumamoto prefecture (I) in 2007 and from the Fukuoka prefecture (II) in 2005 as resistant population of Nilaparvata lugens, and bugs collected from the Kagoshima prefecture and then successively reared indoors for a long time as the imidacloprid susceptible population of Nilaparvata lugens were used.

Data set [6] deals with Naranga aenescens. In kind it is in vivo. The procedure:
After standing for 3 days, first instar larvae were released thereto. […] The test was performed in duplicate.
(§4) Method for Judging Synergistic Effects

In data set [7] the test system is Nilaparvata lugens resistant population II. As to the kind of experiment: Reference Test Example 19 Pest control test of Nilaparvata lugens, resistant population II (soil drench). In kind it is in vivo. The settings on record: for Insecticidal effects against Nilaparvata lugens (death rate %), Resistant population II: soil drench, six days. The procedure: as §1, §2, §3

In data set [8] the test system is Rhizoctonia solani. As to the kind of experiment: Test Example 12 Test of control of rice sheath blight (Rhizoctonia solani). In kind it is in vivo. The conditions noted are these: single agent 50 ppm; foliar spray; six days after inoculation.
The test system of data set [9] is Frankliniella occidentalis. As to the kind of experiment: whole plant or invertebrate. The settings on record: Frankliniella occidentalis. The procedure: After an air drying process, first instar larvae were released thereto. Thereafter, the larvae were left to stand in a thermostatic chamber (16 hours of light period-8 hours of dark period) at 25° C. […] The test was performed in duplicate. Mortality of larvae (%)={number of dead larvae/(number of survived larvae+number of dead larvae)}×100
(A: 100−(mortality of larvae or adults when treated only with Compound P212)
B: 100−(mortality of larvae or adults when treated with only the insecticide imidacloprid, dinotefuran, or acetamiprid))
as §4
When the mortality against Frankliniella occidentalis in the case of a mixture with another agent exceeded the theoretical value given by Colby's equation, a synergistic effect was judged to be present.

[10] abbreviates: foliar, 72 h, read-out: Mortality of single agent against Frankliniella occidentalis.

Consider `O=C(N=c1ccccn1Cc1ccc(Cl)nc1)C(F)(F)F` [Compound P212, N-[1-((6-chloropyridin-3-yl)methyl)pyridin-2(1H)-ylidene]-2,2,2-trifluoroacetamide], for which the mortality at 500 ppm in data set [1] was ≥ 80%. In addition, the mortality at 100 ppm in [2] is ≥ 80%. Also, in [3], the mortality is reported as ≥ 80%. In addition, the “Mortality of larvae (Laodelphax striatellus)” value in data set [4] (single agent 0.005 mg/seedling) is recorded as 0%; in [4] (single agent 0.01 mg/seedling), 100%. The “death rates of larvae” value in [5] (susceptible species, 0.005 mg/seedling, six days after the release) worked out at 100%; in data set [7] (resistant population II, 0.005 mg/seedling, six days after the release) it was 100%. For the same molecule, the “Insecticidal effects against Nilaparvata lugens (death rate %), Susceptible population” value in data set [5] (throughput 0.005 mg/seedling) and in data set [5] (throughput 0.05 mg/seedling) was 100% in each case. The “Theoretical value by Colby's equation” value in [6] (Naranga aenescens, single agent 0.01 mg/seedling (other component 0)) amounted to 60%; in data set [9] (single agent 10 ppm (other component 0)) it was 69%; in [9] (single agent 20 ppm (other component 0)), 70%. Moreover, in data set [6] (single agent 0.01 mg/seedling, soil irrigation, five days after release), the “Mortality of single agent against Naranga aenescens” value is recorded as 60%. In addition, the “Insecticidal effects against Nilaparvata lugens (death rate %), Resistant population II” value in data set [7] (throughput 0.005 mg/seedling) and in data set [7] (throughput 0.05 mg/seedling) was 100% each time. In addition, the “Preventive value (Sheath blight test, lesion height)” value in [8] is 14 and 9. The mortality at 10 ppm in data set [9] (setting [10]) turned out to be 69%. Further, the mortality at 20 ppm in data set [9] (setting [10]) came to 70%.
